Article PMC11617876 (Heliyon, 2024)

Tests used:
[1] = test system: carrageenan-induced paw edema; assay: carrageenan-induced rat paw edema, in vivo anti-inflammatory activity; conditions: diclofenac sodium = 1
albino rats = assay: acute toxicity studies; format: in vivo, rat; conditions: oral

Row | SMILES | Effectiveness [1] | toxicity in laboratory tests (albino rats)
1 | Clc1cccc(-c2nocc2-c2ccccc2)c1 [5i, 3-(3-Chloro-phenyl)-4-phenyl-isoxazole] | 0.55 | –
2 | O=[N+]([O-])c1ccc(-c2nocc2-c2ccccc2)cc1 [5f, 3-(4-Nitro-phenyl)-4-phenyl-isoxazole] | 0.66 | –
3 | COc1ccccc1-c1nocc1-c1ccccc1 [5k, 3-(2-Methoxy-phenyl)-4-phenyl-isoxazole] | 0.09 | –
4 | Oc1cccc(-c2nocc2-c2ccccc2)c1 [5d, 3-(4-Phenyl-isoxazol-3-yl)-phenol] | 0.71 | low toxicity
5 | Brc1cccc(-c2nocc2-c2ccccc2)c1 [5g, 3-(3-Bromo-phenyl)-4-phenyl-isoxazole] | 0.22 | –
6 | Clc1ccc(-c2nocc2-c2ccccc2)cc1 [5b, 3-(4-Chloro-phenyl)-4-phenyl-isoxazole] | 0.83 | low toxicity
7 | COc1cccc(-c2nocc2-c2ccccc2)c1 [5l, 3-(3-Methoxy-phenyl)-4-phenyl-isoxazole] | 0.57 | –
8 | Oc1ccc(-c2nocc2-c2ccccc2)cc1 [5c, 4-(4-Phenyl-isoxazol-3-yl)-phenol] | 0.81 | low toxicity
9 | COc1ccc(-c2nocc2-c2ccccc2)cc1 [5m, 3-(4-Methoxy-phenyl)-4-phenyl-isoxazole] | 0.63 | –
10 | Brc1ccc(-c2nocc2-c2ccccc2)cc1 [5h, 3-(4-Bromo-phenyl)-4-phenyl-isoxazole] | 0.02 | –
11 | Fc1ccc(-c2nocc2-c2ccccc2)cc1 [5j, 3-(4-Fluoro-phenyl)-4-phenyl-isoxazole] | 0.80 | –
12 | O=[N+]([O-])c1cccc(-c2nocc2-c2ccccc2)c1 [5e, 3-(3-Nitro-phenyl)-4-phenyl-isoxazole] | 0.16 | –
13 | O=C(O)Cc1ccccc1Nc1c(Cl)cccc1Cl [Diclofenac sodium, reference compound] | 1 | –
